Source: paper PMC12306498, “Microwave-assisted synthesis of tubulin assembly inhibitors as anticancer agents by aryl ring reversal and conjunctive approach” (RSC Medicinal Chemistry, 2025)
Several values for one entry are separate records, joined by “and”; a condition that tells them apart may be missing. Equal entries are not always repeated. Entries after “also recorded” stand apart in the source; their conditions may differ.

Legend:
HCT116 spheroids = assay: 3D culture (spheroids) from HCT116 cells; type: cell-based; details: 160 nM for 48 h
Experimental: (§1) 3D culturing of BX-PC3 and HCT116 cells were performed seeding 500 cells/well into ultra-low attachment 96-well round-bottomed plates and cultured in supplemented RPMI and DMEM, respectively, at 37 °C under […] atmosphere for 7 days, until spheroids were formed. To evaluate the effect of compound 4 on spheroid growth, a range of doses (10–320 nM) was added to the cell suspension after spheroid formation, and the culture was maintained for 48 h. Spheroid diameters wwere measured using the ZEISS ZEN imaging software from the pictures obtained with an inverted optical microscope (Axio Vert A1, Zeiss, Oberkochen, Germany).

BX-PC3 spheroids = assay: 3D culture (spheroids) from BX-PC3 cells; type: cell-based; details: 320 nM for 48 h
Experimental: as §1

[1] = tested on: MCF-7 human breast carcinoma cells; assay: MCF-7 cell growth inhibition; type: cell-based; details: Homo sapiens, MCF7, cells grown for 96 h, read-out: MCF-7 IC50 ± SD
[2] = tested on: HCT116 colon cancer cells; assay: HCT116 cell viability (MTS assay); type: cell-based; details: inhibition of growth of HCT116 colon cancer cells, incubation time 48 h
Experimental: (§2) MCF-7 breast carcinoma cells were obtained from the National Cancer Institute drug screening laboratory. HCT116 cell line was grown in Dulbecco's modified Eagle's medium (DMEM). BX-PC3 cells were grown in RPMI-1640 medium. Both media were supplemented with 10% fetal bovine serum (FBS), 100 U mL^−1 penicillin, […] streptomycin and 1% of L-glutamine. Cell lines were cultured at 37 °C in 5% CO2 and 95% air in a humidified incubator. T-ALL (Jurkat) cells were grown in RPMI-1640 medium. Both media were supplemented with 115 units per mL of penicillin G, 115 μg mL^−1 of streptomycin, and 10% fetal bovine serum (FBS, all purchased from Invitrogen, Milan, Italy). Cancer cells were seeded in tissue treated, flat bottom, 384-well plates (Corning, Corning, NY, USA) in 24 μL of complete medium per well, using a Microlab STAR 96-CORE liquid handling system (Hamilton Bonaduz, Bonaduz, Switzerland).
(§3) Cell viability of HCT116 and BX-PC3 cells was determined using the 3-(4,5-dimethylthiazol-2-yl)-5-(3-carboxymethoxyphenyl)-2-(4-sulfophenyl)-2H-tetrazolium (MTS) colorimetric assay.[38] […] After 48 h of growth, the MTS reagent was added to each well and absorbance at […] was measured by a microplate reader (Victor, PerkinElmer). The results were expressed as % relative to control cells (100%) and IC50 values were calculated using GraphPad Prism statistics software by nonlinear regression analysis.

tubulin [3] = assay: Inhibition of [3H]colchicine binding to tubulin
Experimental: The reaction mixtures contained 1.0 μM tubulin, 5.0 μM [^3H]colchicine, and 5.0 or 1.0 μM inhibitor, as indicated, and were incubated for 10 min at 37 °C. Complete details were described previously.[36]

[4] = tested on: BX-PC3 pancreatic cancer cells; assay: BX-PC3 cell viability (MTS assay); type: cell-based; details: Homo sapiens, BXPC-3; inhibition of growth of BX-PC3 pancreatic cancer cells; incubation time 48 h
Experimental: as §2, §3

tubulin [5] = assay: Inhibition of tubulin polymerization (tubulin assembly, turbidity at 350 nm); type: biochemical; details: tubulin at 10 μM, read-out: Tubulin IC50 ± SD
Experimental: The assembly reaction mixtures contained 0.8 M monosodium glutamate (pH 6.6 with HCl in a 2 M stock solution), 10 μM tubulin, 4% (v/v) DMSO, and varying concentrations of drug. Following a 15 min preincubation at 30 °C, samples were chilled on ice, GTP to 0.4 mM was added, and turbidity development was followed at 350 nm in a temperature-controlled recording spectrophotometer for 20 min at 30 °C. The extent of reaction was measured. Full experimental details were previously described.[35]

[6] = tested on: Jurkat T lymphocyte cancer cells; assay: Jurkat (T-ALL) cell viability (resazurin assay); type: cell-based; details: Homo sapiens, 96 h, inhibition of growth of Jurkat T lymphocyte cancer cells, incubation time 96 h
Experimental: as §2, with “Cancer cells were seeded in tissue treated, flat bottom, 384-well plates (Corning, Corning, NY, USA) in 24 μL of complete medium per well, using a Microlab STAR 96-CORE liquid handling system (Hamilton Bonaduz, Bonaduz, Switzerland).” left out
For T-ALL, drug stock solutions were prepared for each compound by dissolving them at 10 mM in DMSO. […] The fluorescence signal was measured at 590 nm using a Spark 10 M spectrophotometer (Tecan Group Ltd., Mannedorf, Switzerland). Only plates with Z′ > 0.5 were further analyzed for the drug screening. Raw data were normalized according to the following equation: cell viability (%) = (x − POS)/(NEG − POS) × 100, where x is the relative fluorescence units (RFU) collected from each single well, NEG is the mean of intraplate negative controls (DMSO, corresponding to 100% cell viability), and POS is the mean of intraplate positive controls (benzethonium chloride 75 μM, equal to 0% cell viability). […]

Structure (SMILES): COc1ccc(-c2cn(-c3ccccn3)cc2C(=O)c2cc(OC)c(OC)c(OC)c2)cc1 [Compound 4, (4-(4-Methoxyphenyl)-1-(pyridin-2-yl)-1H-pyrrol-3-yl)(3,4,5-trimethoxyphenyl)methanone]
- Spheroid diameter and morphology (HCT116 spheroids): altered the morphology of treated spheroids; also recorded: significant reduction of spheroid diameter
- Spheroid diameter and morphology (BX-PC3 spheroids): altered the morphology of treated spheroids; also recorded: significant reduction of spheroid diameter
- IC50 [1]: 9.6 ± 0.8 nM
- IC50 ([2]; Homo sapiens, HCT-116, 48 h): 18 nM
- IC50 [2]: 28 nM
- Colch. binding (% ± SD) (tubulin [3]; inhibition of [3H]colchicine binding, tubulin, [3H]colchicine, inhibitor at 1, 5 and 5 μM): 78% and 78 ± 1%
- Inhibition of [3H]colchicine binding (tubulin [3]; inhibitor at 1 μM, tubulin 1 μM, [3H]colchicine 5 μM): 76%
- IC50 [4]: 17 nM
- IC50 (tubulin [5]): 190 ± 6 nM
- IC50 [6]: 41 nM
